Measurements taken from ChEMBL document CHEMBL5715954, “Silencing c-Myc translation as a therapeutic strategy through targeting PI3Kδ and CK1ε in hematological malignancies” (Blood, 2017).

What was measured:
Design in all cases: scale not given: the % may be the effect or the level left
[1] = target: Macrophage colony-stimulating factor 1 receptor (Homo sapiens) (UniProt P07333); assay: Inhibition of human FMS assessed as enzyme activity at 1 uM using poly[Glu:Tyr] (4:1) as substrate preincubated for 20 mins followed by [gamma-33P]-ATP addition and measured after 120 mins by radiometric Hot-SpotSM Kinase assay relative to control
[2] = target: T1, Tyrosine-protein kinase JAK3 (Homo sapiens) (UniProt P52333); assay: Inhibition of human JAK3 assessed as enzyme activity at 1 uM using GGEEEEYFELVKKKK as substrate preincubated for 20 mins followed by [gamma-33P]-ATP addition and measured after 120 mins by radiometric Hot-SpotSM Kinase assay relative to control
T1 sequence (whole entry): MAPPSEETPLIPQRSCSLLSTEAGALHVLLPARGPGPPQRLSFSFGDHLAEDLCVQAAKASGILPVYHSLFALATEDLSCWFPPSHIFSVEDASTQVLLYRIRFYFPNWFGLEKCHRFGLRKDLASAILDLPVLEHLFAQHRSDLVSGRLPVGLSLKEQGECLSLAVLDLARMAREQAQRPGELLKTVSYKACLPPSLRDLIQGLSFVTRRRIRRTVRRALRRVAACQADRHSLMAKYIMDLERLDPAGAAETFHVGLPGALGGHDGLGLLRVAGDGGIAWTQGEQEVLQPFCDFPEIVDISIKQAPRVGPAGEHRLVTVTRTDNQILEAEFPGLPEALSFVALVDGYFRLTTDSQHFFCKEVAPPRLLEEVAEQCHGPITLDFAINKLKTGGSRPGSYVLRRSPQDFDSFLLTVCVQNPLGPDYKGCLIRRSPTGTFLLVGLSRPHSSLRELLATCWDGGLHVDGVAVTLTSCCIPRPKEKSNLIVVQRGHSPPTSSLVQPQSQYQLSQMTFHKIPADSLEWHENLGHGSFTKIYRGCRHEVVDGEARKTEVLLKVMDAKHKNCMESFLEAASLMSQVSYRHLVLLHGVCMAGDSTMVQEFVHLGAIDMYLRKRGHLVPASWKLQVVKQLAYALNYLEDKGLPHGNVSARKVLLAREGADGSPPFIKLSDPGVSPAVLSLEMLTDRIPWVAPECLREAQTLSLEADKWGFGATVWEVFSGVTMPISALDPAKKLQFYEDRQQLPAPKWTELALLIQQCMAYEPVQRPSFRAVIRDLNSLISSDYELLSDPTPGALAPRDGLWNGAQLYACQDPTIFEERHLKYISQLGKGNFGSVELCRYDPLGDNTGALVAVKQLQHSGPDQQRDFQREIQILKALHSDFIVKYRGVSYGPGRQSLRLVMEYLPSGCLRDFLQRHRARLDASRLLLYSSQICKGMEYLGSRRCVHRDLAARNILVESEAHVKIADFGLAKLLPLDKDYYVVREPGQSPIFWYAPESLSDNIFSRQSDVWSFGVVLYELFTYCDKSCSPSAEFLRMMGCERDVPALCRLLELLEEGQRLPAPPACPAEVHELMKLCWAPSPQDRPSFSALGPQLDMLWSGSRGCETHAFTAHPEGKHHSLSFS

[3] = target: Serine/threonine-protein kinase tousled-like 2 (Homo sapiens) (UniProt Q86UE8); assay: Inhibition of human TLK2 assessed as enzyme activity at 1 uM using casein as substrate preincubated for 20 mins followed by [gamma-33P]-ATP addition and measured after 120 mins by radiometric Hot-SpotSM Kinase assay relative to control
[4] = target: Dual specificity mitogen-activated protein kinase kinase 1 (Homo sapiens) (UniProt Q02750); assay: Inhibition of human MEK1 assessed as enzyme activity at 1 uM using ERK2 (K52R) as substrate preincubated for 20 mins followed by [gamma-33P]-ATP addition and measured after 120 mins by radiometric Hot-SpotSM Kinase assay relative to control
[5] = target: Serine/threonine-protein kinase PLK3 (Homo sapiens) (UniProt Q9H4B4); assay: Inhibition of human PLK3 assessed as enzyme activity at 1 uM using casein as substrate preincubated for 20 mins followed by [gamma-33P]-ATP addition and measured after 120 mins by radiometric Hot-SpotSM Kinase assay relative to control
[6] = target: T2, TGF-beta receptor type-1 (Homo sapiens) (UniProt P36897); assay: Inhibition of human ALK5 assessed as enzyme activity at 1 uM using casein as substrate preincubated for 20 mins followed by [gamma-33P]-ATP addition and measured after 120 mins by radiometric Hot-SpotSM Kinase assay relative to control
T2 sequence (whole entry): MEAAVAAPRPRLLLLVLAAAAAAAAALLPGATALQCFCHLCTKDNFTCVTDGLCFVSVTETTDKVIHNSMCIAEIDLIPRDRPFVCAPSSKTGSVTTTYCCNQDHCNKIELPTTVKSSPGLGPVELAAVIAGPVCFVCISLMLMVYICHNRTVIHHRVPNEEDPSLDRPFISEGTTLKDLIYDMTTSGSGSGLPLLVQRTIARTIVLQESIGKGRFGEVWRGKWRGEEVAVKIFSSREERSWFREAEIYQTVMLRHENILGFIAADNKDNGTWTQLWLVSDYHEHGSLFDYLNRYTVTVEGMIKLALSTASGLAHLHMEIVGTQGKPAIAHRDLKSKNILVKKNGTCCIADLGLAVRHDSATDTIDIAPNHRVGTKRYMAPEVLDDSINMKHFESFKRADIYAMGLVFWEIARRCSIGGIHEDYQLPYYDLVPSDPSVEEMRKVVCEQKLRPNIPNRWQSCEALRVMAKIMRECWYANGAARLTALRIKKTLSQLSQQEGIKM

[7] = target: Cyclin-dependent kinase 1/cyclin B1 (Homo sapiens) (UniProt P06493+P14635); assay: Inhibition of human CDK1/cyclin B assessed as enzyme activity at 1 uM using RB Protein as substrate preincubated for 20 mins followed by [gamma-33P]-ATP addition and measured after 120 mins by radiometric Hot-SpotSM Kinase assay relative to control; assay type: protein-complex assay
[8] = target: Receptor tyrosine-protein kinase erbB-2 (Homo sapiens) (UniProt P04626); assay: Inhibition of human ERBB2 assessed as enzyme activity at 1 uM using poly[Glu:Tyr] (4:1) as substrate preincubated for 20 mins followed by [gamma-33P]-ATP addition and measured after 120 mins by radiometric Hot-SpotSM Kinase assay relative to control
[9] = target: ALK tyrosine kinase receptor (Homo sapiens) (UniProt Q9UM73); assay: Inhibition of human ALK assessed as enzyme activity at 1 uM using poly[Glu:Tyr] (4:1) as substrate preincubated for 20 mins followed by [gamma-33P]-ATP addition and measured after 120 mins by radiometric Hot-SpotSM Kinase assay relative to control
ALK tyrosine kinase receptor (Homo sapiens), sequence (Q9UM73 19-1620 limits assumed): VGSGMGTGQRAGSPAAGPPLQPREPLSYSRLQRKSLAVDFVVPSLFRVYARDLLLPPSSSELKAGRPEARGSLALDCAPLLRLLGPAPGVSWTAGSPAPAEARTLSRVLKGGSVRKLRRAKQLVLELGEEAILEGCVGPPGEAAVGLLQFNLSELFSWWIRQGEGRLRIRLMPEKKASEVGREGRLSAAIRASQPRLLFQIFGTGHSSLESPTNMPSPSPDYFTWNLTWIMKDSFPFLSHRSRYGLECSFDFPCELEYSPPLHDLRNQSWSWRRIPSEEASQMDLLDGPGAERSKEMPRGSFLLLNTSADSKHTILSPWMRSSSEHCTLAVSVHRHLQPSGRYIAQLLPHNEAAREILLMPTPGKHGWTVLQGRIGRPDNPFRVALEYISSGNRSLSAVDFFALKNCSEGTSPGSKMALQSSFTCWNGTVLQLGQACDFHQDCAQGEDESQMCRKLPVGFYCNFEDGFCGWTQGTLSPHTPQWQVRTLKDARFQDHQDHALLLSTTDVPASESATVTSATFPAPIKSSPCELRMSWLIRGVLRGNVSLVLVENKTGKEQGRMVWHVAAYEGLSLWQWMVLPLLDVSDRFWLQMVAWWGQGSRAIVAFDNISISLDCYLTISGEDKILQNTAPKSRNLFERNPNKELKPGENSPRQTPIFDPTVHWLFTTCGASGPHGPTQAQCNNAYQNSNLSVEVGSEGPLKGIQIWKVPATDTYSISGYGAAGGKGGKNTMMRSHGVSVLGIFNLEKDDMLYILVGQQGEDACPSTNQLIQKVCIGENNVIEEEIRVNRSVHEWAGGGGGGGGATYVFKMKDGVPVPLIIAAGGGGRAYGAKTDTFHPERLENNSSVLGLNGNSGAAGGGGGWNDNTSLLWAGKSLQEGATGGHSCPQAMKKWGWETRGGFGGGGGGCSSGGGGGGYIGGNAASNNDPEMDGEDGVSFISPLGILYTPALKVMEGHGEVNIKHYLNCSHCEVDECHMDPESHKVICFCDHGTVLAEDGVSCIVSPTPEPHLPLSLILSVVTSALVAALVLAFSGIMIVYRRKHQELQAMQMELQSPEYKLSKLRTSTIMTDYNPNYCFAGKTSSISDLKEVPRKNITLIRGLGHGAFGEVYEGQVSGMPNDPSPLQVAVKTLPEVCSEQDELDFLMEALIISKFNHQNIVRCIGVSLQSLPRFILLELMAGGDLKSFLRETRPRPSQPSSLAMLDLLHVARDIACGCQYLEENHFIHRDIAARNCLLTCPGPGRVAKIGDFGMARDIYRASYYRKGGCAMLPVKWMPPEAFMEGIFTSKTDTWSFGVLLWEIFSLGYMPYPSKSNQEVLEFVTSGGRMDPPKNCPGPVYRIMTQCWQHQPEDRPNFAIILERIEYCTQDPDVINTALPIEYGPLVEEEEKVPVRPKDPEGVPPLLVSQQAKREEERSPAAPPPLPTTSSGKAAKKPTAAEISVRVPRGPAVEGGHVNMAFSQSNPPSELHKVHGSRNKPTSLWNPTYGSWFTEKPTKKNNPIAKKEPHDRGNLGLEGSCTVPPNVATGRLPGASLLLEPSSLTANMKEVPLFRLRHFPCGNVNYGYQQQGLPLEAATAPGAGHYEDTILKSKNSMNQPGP

Macrophage colony-stimulating factor 1 receptor (Homo sapiens), sequence (P07333 whole entry): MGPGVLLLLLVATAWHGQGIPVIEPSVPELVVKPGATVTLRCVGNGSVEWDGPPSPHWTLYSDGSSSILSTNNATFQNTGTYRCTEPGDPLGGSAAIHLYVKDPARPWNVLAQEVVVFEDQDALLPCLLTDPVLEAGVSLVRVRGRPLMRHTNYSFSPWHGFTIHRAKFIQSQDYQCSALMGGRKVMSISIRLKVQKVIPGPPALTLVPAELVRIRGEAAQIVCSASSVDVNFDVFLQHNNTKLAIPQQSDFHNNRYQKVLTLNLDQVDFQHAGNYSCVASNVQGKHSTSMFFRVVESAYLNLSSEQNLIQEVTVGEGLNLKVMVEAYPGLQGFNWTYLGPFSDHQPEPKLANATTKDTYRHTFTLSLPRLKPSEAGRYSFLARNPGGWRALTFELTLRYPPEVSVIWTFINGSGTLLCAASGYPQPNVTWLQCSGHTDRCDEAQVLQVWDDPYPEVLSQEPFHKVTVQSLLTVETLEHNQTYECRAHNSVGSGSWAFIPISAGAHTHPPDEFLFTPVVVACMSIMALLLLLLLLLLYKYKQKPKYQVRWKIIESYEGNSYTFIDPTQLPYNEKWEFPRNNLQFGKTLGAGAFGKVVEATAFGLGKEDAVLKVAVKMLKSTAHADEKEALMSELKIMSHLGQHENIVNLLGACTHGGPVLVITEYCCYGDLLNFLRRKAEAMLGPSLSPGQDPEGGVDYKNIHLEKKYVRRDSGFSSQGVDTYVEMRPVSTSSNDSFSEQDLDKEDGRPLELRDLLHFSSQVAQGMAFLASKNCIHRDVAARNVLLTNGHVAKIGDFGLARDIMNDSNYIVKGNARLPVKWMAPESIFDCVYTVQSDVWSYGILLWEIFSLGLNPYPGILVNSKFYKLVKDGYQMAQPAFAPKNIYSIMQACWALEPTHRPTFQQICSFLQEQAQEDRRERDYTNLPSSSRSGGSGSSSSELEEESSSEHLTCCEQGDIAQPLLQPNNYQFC
Cyclin-dependent kinase 1/cyclin B1 (Homo sapiens), sequence (P06493 whole entry, looked up): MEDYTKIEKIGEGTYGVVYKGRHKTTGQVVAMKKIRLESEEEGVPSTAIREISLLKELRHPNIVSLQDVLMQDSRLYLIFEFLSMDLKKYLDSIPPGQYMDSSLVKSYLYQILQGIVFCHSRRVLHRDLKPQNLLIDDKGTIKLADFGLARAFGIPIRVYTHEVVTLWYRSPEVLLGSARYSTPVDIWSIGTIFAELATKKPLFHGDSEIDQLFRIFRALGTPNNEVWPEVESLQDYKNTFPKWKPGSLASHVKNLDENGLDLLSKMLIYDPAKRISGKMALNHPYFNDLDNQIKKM
Cyclin-dependent kinase 1/cyclin B1 (Homo sapiens), sequence (P14635 whole entry, looked up): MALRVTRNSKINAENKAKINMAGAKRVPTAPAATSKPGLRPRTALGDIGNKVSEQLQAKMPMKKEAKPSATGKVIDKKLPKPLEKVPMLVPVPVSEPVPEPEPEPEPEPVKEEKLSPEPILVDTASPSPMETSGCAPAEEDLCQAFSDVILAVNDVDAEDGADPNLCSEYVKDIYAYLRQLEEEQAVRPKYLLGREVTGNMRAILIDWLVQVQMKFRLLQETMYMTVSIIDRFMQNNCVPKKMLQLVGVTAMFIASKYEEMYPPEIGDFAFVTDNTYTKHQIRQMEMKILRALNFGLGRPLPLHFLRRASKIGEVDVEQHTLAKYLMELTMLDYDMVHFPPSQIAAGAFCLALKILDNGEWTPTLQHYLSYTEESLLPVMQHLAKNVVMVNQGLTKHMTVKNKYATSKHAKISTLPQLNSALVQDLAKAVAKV
Serine/threonine-protein kinase PLK3 (Homo sapiens), sequence (Q9H4B4 whole entry, looked up): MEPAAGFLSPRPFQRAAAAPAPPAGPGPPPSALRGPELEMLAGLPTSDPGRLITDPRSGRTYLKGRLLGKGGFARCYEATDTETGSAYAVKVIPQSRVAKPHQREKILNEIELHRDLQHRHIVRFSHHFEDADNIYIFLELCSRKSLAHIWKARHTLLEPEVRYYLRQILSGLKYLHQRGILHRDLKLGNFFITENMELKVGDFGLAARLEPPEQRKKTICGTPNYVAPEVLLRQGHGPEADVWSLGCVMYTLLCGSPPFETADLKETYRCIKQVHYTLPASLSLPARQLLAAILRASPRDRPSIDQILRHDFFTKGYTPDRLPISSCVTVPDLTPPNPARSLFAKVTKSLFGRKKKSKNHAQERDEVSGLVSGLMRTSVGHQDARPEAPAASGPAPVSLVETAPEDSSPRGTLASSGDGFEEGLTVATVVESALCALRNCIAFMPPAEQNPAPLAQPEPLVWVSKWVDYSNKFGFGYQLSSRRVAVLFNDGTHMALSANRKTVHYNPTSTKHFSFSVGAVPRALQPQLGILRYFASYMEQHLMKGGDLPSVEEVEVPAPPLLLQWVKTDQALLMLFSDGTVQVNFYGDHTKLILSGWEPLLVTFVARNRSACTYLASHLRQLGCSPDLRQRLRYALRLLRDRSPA
Serine/threonine-protein kinase tousled-like 2 (Homo sapiens), sequence (Q86UE8 whole entry, looked up): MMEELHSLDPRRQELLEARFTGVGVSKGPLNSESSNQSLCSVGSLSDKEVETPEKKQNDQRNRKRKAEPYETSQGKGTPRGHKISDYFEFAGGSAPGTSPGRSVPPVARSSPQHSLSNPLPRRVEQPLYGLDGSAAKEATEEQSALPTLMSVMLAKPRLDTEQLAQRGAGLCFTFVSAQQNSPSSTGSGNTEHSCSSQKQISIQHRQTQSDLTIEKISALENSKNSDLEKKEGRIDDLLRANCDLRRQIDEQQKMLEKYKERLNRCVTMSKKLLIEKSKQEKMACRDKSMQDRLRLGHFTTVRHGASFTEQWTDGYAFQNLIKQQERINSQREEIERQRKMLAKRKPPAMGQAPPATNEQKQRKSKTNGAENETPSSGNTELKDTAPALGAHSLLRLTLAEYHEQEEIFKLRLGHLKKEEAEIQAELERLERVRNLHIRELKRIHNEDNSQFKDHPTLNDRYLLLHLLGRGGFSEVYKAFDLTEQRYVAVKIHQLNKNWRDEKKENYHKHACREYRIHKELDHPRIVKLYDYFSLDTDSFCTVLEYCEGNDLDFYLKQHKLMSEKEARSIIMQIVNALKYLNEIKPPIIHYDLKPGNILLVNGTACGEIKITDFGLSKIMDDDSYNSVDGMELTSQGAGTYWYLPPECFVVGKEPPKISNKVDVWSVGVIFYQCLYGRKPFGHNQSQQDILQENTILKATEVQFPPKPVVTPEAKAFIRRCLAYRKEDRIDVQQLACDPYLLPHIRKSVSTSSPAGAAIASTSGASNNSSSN

Row | Structure (SMILES) | Activity [1] | Activity [2] | Activity [3] | Activity [4] | Activity [5] | Activity [6] | Activity [7] | Activity [8] | Activity [9]
1 | C[C@H](Nc1ncnc2nc[nH]c12)c1cc2cccc(Cl)c2c(=O)n1-c1ccccc1 | 100% | 95.2% | 97.3% | 97.2% | 95.1% | 108% | 97% | 104% | 96.7%
2 | CC[C@H](Nc1ncnc2[nH]cnc12)c1nc2cccc(F)c2c(=O)n1-c1ccccc1 | 98.1% | 94.3% | 94% | 100% | 98.4% | 108% | 102% | 109% | 100%
3 | CC(C)Oc1ccc(-c2nn([C@@H](C)c3oc4ccc(F)cc4c(=O)c3-c3cccc(F)c3)c3ncnc(N)c23)cc1F [UMBRALISIB] | 104% | 91.2% | 96.3% | 94.4% | 96.7% | 109% | 98.9% | 117% | 96.5%
